Measured values taken from the NIST ThermoML archive (doi:10.1016/j.tca.2012.01.007).
Numbers after ± are expanded uncertainties.

Tests used:
[1] = wn = mass fraction of the nth substance listed; details: 101 kPa, Liquid, Vibrating tube method
[2] = 101 kPa, Liquid, Vibrating tube method

CCO [ethanol] + OCCNCCO
[1], w2 = 0
Details | mass density [kg/m3]
278.15 K | 802.686 ± 0.12
283.15 K | 798.458 ± 0.13
293.14 K | 789.938 ± 0.13
303.14 K | 781.332 ± 0.13
313.16 K | 772.577 ± 0.14
323.14 K | 763.677 ± 0.14
333.14 K | 754.521 ± 0.14
343.15 K | 745.054 ± 0.15
348.14 K | 740.206 ± 0.15

CCO [ethanol]
[2]
Details | mass density [kg/m3]
278.15 K | 802.686 ± 0.12
283.15 K | 798.458 ± 0.13
293.14 K | 789.938 ± 0.13
303.14 K | 781.332 ± 0.13
313.16 K | 772.577 ± 0.14
323.14 K | 763.677 ± 0.14
333.14 K | 754.521 ± 0.14
343.15 K | 745.054 ± 0.15
348.14 K | 740.206 ± 0.15

O [water]
[2]
Details | mass density [kg/m3]
283.15 K | 999.964 ± 0.48
293.15 K | 998.557 ± 0.48
303.15 K | 995.999 ± 0.48
313.15 K | 992.57 ± 0.48
323.15 K | 988.391 ± 0.47
333.15 K | 983.453 ± 0.47
343.14 K | 977.483 ± 0.47
353.14 K | 972.2 ± 0.47

CO [methanol]
[2]
Details | mass density [kg/m3]
283.15 K | 801.436 ± 0.15
293.15 K | 792.069 ± 0.15
303.15 K | 782.606 ± 0.15
313.15 K | 773.049 ± 0.15
323.15 K | 763.363 ± 0.16
333.15 K | 753.506 ± 0.16

OCCNCCO [diethanolamine] + CO
[1]
Details | mass density [kg/m3]
283.14 K, w1 = 0.5999 | 976.523 ± 0.2
283.15 K, w1 = 0.1 | 827.828 ± 0.15
283.15 K, w1 = 0.2 | 855.383 ± 0.15
283.15 K, w1 = 0.3 | 883.986 ± 0.17
283.15 K, w1 = 0.3999 | 913.669 ± 0.19
283.15 K, w1 = 0.5002 | 945.053 ± 0.22
283.15 K, w1 = 0.8001 | 1038.06 ± 0.23
283.15 K, w1 = 0.831 | 1047.98 ± 0.24
283.15 K, w1 = 0.9004 | 1070.41 ± 0.27
283.15 K, w1 = 0.9209 | 1077.24 ± 0.28
283.16 K, w1 = 0.6997 | 1006.57 ± 0.2
293.14 K, w1 = 0.1 | 818.746 ± 0.15
293.14 K, w1 = 0.9209 | 1070.68 ± 0.27
293.15 K, w1 = 0.2 | 846.577 ± 0.16
293.15 K, w1 = 0.3 | 875.502 ± 0.17
293.15 K, w1 = 0.3999 | 905.478 ± 0.2
293.15 K, w1 = 0.5002 | 937.232 ± 0.22
293.15 K, w1 = 0.5999 | 969.048 ± 0.21
293.15 K, w1 = 0.6997 | 999.095 ± 0.2
293.15 K, w1 = 0.8001 | 1030.93 ± 0.22
293.15 K, w1 = 0.9004 | 1063.79 ± 0.26
293.16 K, w1 = 0.831 | 1040.93 ± 0.23
303.14 K, w1 = 0.1 | 809.6 ± 0.15
303.14 K, w1 = 0.5999 | 961.458 ± 0.21
303.15 K, w1 = 0.2 | 837.727 ± 0.16
303.15 K, w1 = 0.3 | 866.962 ± 0.17
303.15 K, w1 = 0.3999 | 897.232 ± 0.2
303.15 K, w1 = 0.5002 | 929.334 ± 0.23
303.15 K, w1 = 0.6997 | 991.41 ± 0.2
303.15 K, w1 = 0.8001 | 1023.79 ± 0.22
303.15 K, w1 = 0.831 | 1033.88 ± 0.23
303.15 K, w1 = 0.9004 | 1057.05 ± 0.26
303.15 K, w1 = 0.9209 | 1064.03 ± 0.27
313.14 K, w1 = 0.1 | 800.368 ± 0.16
313.15 K, w1 = 0.2 | 828.795 ± 0.16
313.15 K, w1 = 0.3 | 858.34 ± 0.18
313.15 K, w1 = 0.3999 | 888.909 ± 0.2
313.15 K, w1 = 0.5002 | 921.353 ± 0.23
313.15 K, w1 = 0.5999 | 953.776 ± 0.21
313.15 K, w1 = 0.6997 | 983.97 ± 0.2
313.15 K, w1 = 0.8001 | 1016.6 ± 0.21
313.15 K, w1 = 0.831 | 1026.78 ± 0.23
313.15 K, w1 = 0.9004 | 1050.22 ± 0.25
313.15 K, w1 = 0.9209 | 1057.29 ± 0.26
323.14 K, w1 = 0.1 | 791.018 ± 0.16
323.15 K, w1 = 0.2 | 819.75 ± 0.17
323.15 K, w1 = 0.3 | 849.609 ± 0.18
323.15 K, w1 = 0.3999 | 880.486 ± 0.2
323.15 K, w1 = 0.5002 | 913.261 ± 0.23
323.15 K, w1 = 0.5999 | 945.981 ± 0.21
323.15 K, w1 = 0.6997 | 976.456 ± 0.2
323.15 K, w1 = 0.8001 | 1009.28 ± 0.21
323.15 K, w1 = 0.831 | 1019.63 ± 0.22
323.15 K, w1 = 0.9004 | 1043.29 ± 0.25
323.15 K, w1 = 0.9209 | 1050.47 ± 0.26
333.14 K, w1 = 0.1 | 781.504 ± 0.16
333.14 K, w1 = 0.5999 | 938.046 ± 0.21
333.14 K, w1 = 0.9209 | 1043.49 ± 0.25
333.15 K, w1 = 0.2 | 810.556 ± 0.17
333.15 K, w1 = 0.3 | 840.739 ± 0.18
333.15 K, w1 = 0.3999 | 871.934 ± 0.2
333.15 K, w1 = 0.5002 | 905.025 ± 0.23
333.15 K, w1 = 0.6997 | 968.833 ± 0.2
333.15 K, w1 = 0.8001 | 1002.21 ± 0.21
333.15 K, w1 = 0.831 | 1012.39 ± 0.22
333.15 K, w1 = 0.9004 | 1036.23 ± 0.24

O [water] + OCCNCCO
[1], w2 = 0
Details | mass density [kg/m3]
283.15 K | 999.964 ± 0.48
293.15 K | 998.557 ± 0.48
303.15 K | 995.999 ± 0.48
313.15 K | 992.57 ± 0.48
323.15 K | 988.391 ± 0.47
333.15 K | 983.453 ± 0.47
343.14 K | 977.483 ± 0.47
353.14 K | 972.2 ± 0.47

OCCNCCO [diethanolamine]
[2]
Details | mass density [kg/m3]
278.14 K | 1107.05 ± 0.32
283.14 K | 1103.88 ± 0.31
293.15 K | 1097.51 ± 0.31
303.14 K | 1091.06 ± 0.3
313.14 K | 1084.49 ± 0.3
323.14 K | 1077.78 ± 0.29
333.14 K | 1071 ± 0.29
343.14 K | 1064.14 ± 0.28
348.14 K | 1060.68 ± 0.28
353.15 K | 1056.83 ± 0.28

CO [methanol] + OCCNCCO
[1], w2 = 0
Details | mass density [kg/m3]
283.15 K | 801.436 ± 0.15
293.15 K | 792.069 ± 0.15
303.15 K | 782.606 ± 0.15
313.15 K | 773.049 ± 0.15
323.15 K | 763.363 ± 0.16
333.15 K | 753.506 ± 0.16
